{
  "source": "patent US20090123389A1",
  "about": "“Methods for modulating Th17 cell development in the treatment and prevention of cellulite” (priority 2007, published 2009)",
  "key": {"CD4+ CD25− T cells [1]": {"system": "CD4+ CD25− T cells", "assay": "CD4+ T cell proliferation, CD25 upregulation, cytokine production, Th1/Th2/iTreg differentiation", "format": "cell-based, mouse", "conditions": "for concentration causing general inhibition of T and B cell activation, proliferation and effector function: CD4+ T cells, CD8+ T cells, B220+ B cells", "description": "The dose-response of HF on CD4+ T cell proliferation, activation (i.e. CD25 upregulation) and differentiation to Th1, Th2 and Th17 lineages were evaluated. Purified murine naïve CD4+ CD25− T cells were activated using anti-CD3 (0.3 μg/ml) and anti-CD28 (0.5 μg/ml) antibodies and varying amounts of HF was added to each T cell culture condition (1.25 nM-40 nM). CD4+ T cell proliferation was monitored by CFSE dilution on day 3-post activation and CD25 expression was evaluated by FACS staining 2 days after activation. For T cell differentiation experiments, naïve T cells were activated as above in the presence of Th1 (IL-12 (20 ng/ml) plus anti-IL-4 (1.5 μg/ml)), Th2 (IL-4 (50 ng/ml) plus anti-IFNγ (0.5 mg/ml)) or Th17 (TGFβ (3 ng/ml) plus IL-6 (30 ng/ml)) polarizing conditions plus titrating amounts of HF (1.25 nM-40 nM) or MAZ1310 (40 nM). The percentage of Th17 cells, (IL-17^+ IFNγ^−) was evaluated on day 3 following activation, whereas the abundance of Th1 cells (IFNγ^+ IL-4) and Th2 cells (IL-4^+ IFNγ^−) was determined 5 days following activation. All cytokine expression was determined by intracellular staining following PMA+Ionomycin+Brefeldin A re-stimulation and all data was normalized to control (MAZ1310)-treated cells. […] Biol., vol. 80:1-8 (2006).\nCytokines, antibodies and T cell culture: Purified CD4^+ CD25^− T cells were activated in vitro as previously described (I. M. Djuretic et al., Nat Immunol 8, 145 (2007)) using 0.3 μg/ml hamster anti-mouse CD3 (clone 145-2C11) (ATCC—Manassas, Va.) and 0.5 μg/ml hamster anti-mouse CD28 (BD Pharmingen, San Jose, Calif.). Activated cell cultures were differentiated using the following combinations of cytokines and antibodies: iTreg=recombinant human TGFβ1 (3 ng/ml; R&D systems, Minneapolis, Minn.), Th17=TGFβ1 (3 ng/ml) plus recombinant mouse IL-6 (30 ng/ml, R&D systems). Th1 and Th2 differentiation was performed as previously described. (I. M. Djuretic et al., Nat Immunol 8, 145 (2007)). Human IL-2 supernatant (National Cancer Institute) was used in culture at 0.01 U/ml and was added at 48 hours-post activation when T cells were split into tissue culture wells lacking CD3 and CD28 antibodies, with the exception of Th17 cultures that were maintained in the absence of IL-2. All reagents were added at the time of T cell activation and again at 48-hours post activation unless indicated otherwise. For some experiments, purified CD4^+ CD25^− T cells, CD8^+ T cells or B cells were labeled with 1 μM CFSE (Invitrogen) prior to activation in accordance with manufacturers instructions.\nDetection of cytokine production: Cytokines secreted into media supernatant were measured using the mouse Th1/Th2 cytometric bead array (CBA, BD Pharmingen) in accordance with manufacturers instructions. Briefly, CD4^+ CD25^− T cells were activated in anti-CD3/anti-CD28-coated tissue culture wells and supernatants were collected at the indicated times. For detection of intracellular cytokines in murine cells, cultured T or B cells were stimulated with 10 nM PMA (Sigma) and […] (Sigma) for 4-5 hours in the presence of […] (Sigma). Stimulated cells were harvested, washed with PBS and fixed with PBS plus 4% paraformaldehyde at room temperature for 20 minutes. […]"}, "CD4+ CD25− T cells [2]": {"system": "CD4+ CD25− T cells", "assay": "Quantitative real-time PCR of AAR-associated genes in activated T cells", "format": "cell-based, mouse", "conditions": "10 nM HF, within 4 hours of T cell activation", "description": "FIG. 12C is a graph depicting the results of quantitative real-time PCR performed on cDNA generated from resting naïve T cells (TN) or T cells activated for 4 hours in the presence of 10 nM MAZ1310 or 10 nM HF. Asns, Gpt2 or eIF4Ebp1 mRNA expression was normalized to Hprt levels and data are presented as mean values±SD in duplicate samples.\nQuantitative real-time PCR: T cells were activated as described above, collected at the indicated times and pellets were flash-frozen in liquid nitrogen. Total RNA was obtained by RNeasy (Quiagen, Valencia, Calif.) column purification per manufacturers instructions. RORγt expression was determined after reverse transcription using the message sensor kit (Ambion, Austin, Tex.) per manufacturers instructions and taqman primers and probe as described elsewhere (I. Ivanov, et al., Cell 126, 1121, 2006). Sybrgreen quantitative real-time PCR was performed on T cell RNA samples following reverse transcription via SuperScript II first-strand cDNA synthesis kit (Invitrogen, Carlsbad, Calif.). All PCR data was collected on an iCycler thermal cycler (Biorad, Hercules, Calif.). Primer sequences used for detecting stress response genes are listed below."}, "splenocytes": {"system": "splenocytes", "assay": "In vivo activation of the AAR pathway in splenocytes of treated mice", "parameters": "species or system C57B/6 mice", "conditions": "2.5 μg HF i.p., 6 hours post injection", "description": "FIG. 20A is a graph depicting splenocytes from control- and HF-treated mice. C57B/6 mice were injected i.p. with vehicle (DMSO) or 2.5 μg HF. Spleens were harvested 6 hours post injection, red blood cells were lysed and total splenocytes were counted. Data are presented as mean cell counts±SD from 2 mice per group.\nFIG. 20C is a graph depicting eIF2α expression in control- and HF-treated mice. Splenocytes from mice injected with DMSO or HF as above were harvested 6 hours post injection. Red blood cells were lysed and immunoblotting was performed on whole cell extracts for phosphorylated or total eIF2α as indicated.\nFIG. 20D is a graph depicting the results of quantitative real-time PCR (qPCR) experiments performed for AAR-associated gene expression (Asns, Gpt2, eIF4Ebp1) using cDNA generated from splenocytes of mice injected with DMSO or HF as above. Expression of AAR-associated genes were normalized to Hprt levels and data are presented as mean relative expression from duplicate samples±SD."}, "T-cells and fibroblasts": {"system": "T-cells and fibroblasts", "assay": "Non-specific effects at high concentrations in vitro", "format": "cell-based", "conditions": "about 80 nM HF, primary T-cells"}, "[3]": {"system": "human peripheral blood T cells", "conditions": "cited from earlier work"}},
  "data": [
    {"smiles": "O=C(CC1NCCCC1O)Cn1cnc2cc(Br)c(Cl)cc2c1=O", "note": "(racemic) [HF, 7-bromo-6-chloro-3-[3-(3-hydroxy-2-piperidinyl)-2-oxopropyl]-4(3H)-quinazolinone]", "values": [
      {"measurement": "concentration causing general inhibition of T and B cell activation, proliferation and effector function", "setting": "CD4+ CD25− T cells [1]", "value": "> 20", "unit": "nM"},
      {"measurement": "concentration causing general inhibition of T and B cell activation, proliferation and effector function", "setting": "CD4+ CD25− T cells [1]; listed as halofuginone", "value": "20 to 40", "unit": "nM"},
      {"measurement": "T cell proliferation, CD25 upregulation or production of IL-2, TNF or IFNγ", "setting": "CD4+ CD25− T cells [1]; low concentrations of HF (1-10 nM)", "value": "did not affect"},
      {"measurement": "Th1, Th2 or iTreg differentiation (IFNγ, IL-4 or Foxp3 expression)", "setting": "CD4+ CD25− T cells [1]; low-dose HF", "value": "failed to modulate"},
      {"measurement": "AAR-associated genes (Asns, Gpt2, eIF4Ebp1) mRNA by qPCR", "setting": "CD4+ CD25− T cells [2]", "value": "induced"},
      {"measurement": "eIF2α phosphorylation and AAR-associated gene expression in splenocytes of treated mice", "setting": "splenocytes", "value": "rapidly activates"},
      {"measurement": "T-cell proliferation at high concentrations", "setting": "T-cells and fibroblasts", "value": "generalized inhibition"},
      {"measurement": "NFkB activation and T-cell secretion of cytokines", "setting": "[3]; 80 nM HF, crude preparation of primary T-cells", "value": "broadly suppress"},
      {"measurement": "IC50", "setting": "[3]; Lieba studies, read-out: 50% inhibition of cytokine secretion, NF-kB activation, p38 phosphorylation", "value": "20 to 40", "unit": "nM"},
      {"measurement": "levels of cytokine secretion, NF-kB activation and p38 phosphorylation", "setting": "[3]; anti-CD3 activated T cells", "value": "generally reduced levels"}
    ]}
  ]
}
